{
  "source": "patent US8603945B2",
  "about": "“Methods and compositions for providing salicyclic acid-independent pathogen resistance in plants” (The Regents of the University of California, priority 2008, dated 2013)",
  "key": {"−333_CaBP22::GUS [1]": {"system": "−333_CaBP22::GUS", "experiment": "−333_CaBP22::GUS reporter induction in one-week old seedlings grown in liquid medium (Xgluc staining / MUG assay)", "format": "in vivo, Arabidopsis", "details": "for EC50: −333_CaBP22::GUS, MUG assay, read-out: EC50 value (effective concentration leading to a half-maximal response)", "description": "A: Structure of DCA. B/C: Dose-response curves. One-week old −333_CaBP22::GUS seedlings were grown in liquid medium and incubated with the indicated concentrations of DCA (67) or SA for 24 h prior to Xgluc staining (blue, panel B) or quantitative assays for GUS activity using 4-methyl umbelliferyl-glucuronide (MUG, panel C).\nLURP expression appears to be controlled by a multitude of defense regulators including AtWRKY70 and so far unknown transcription factors. […] Thus LURP-promoter/reporter systems are useful tools to screen for defense inducing chemicals. A 333_CaBP22::GUS line was used to screen chemical libraries of the Center for Plant Cell Biology at UC-Riverside for substances that induce activity of this reporter in the absence of pathogens. One week old seedlings of the reporter line grown in 96 well plates with liquid MS medium were treated with library chemicals at a final concentration of 4-20 microM in 0.001% DMSO and stained with X-Gluc to detect GUS activity 24 h later (FIG. 2). The library chemicals were transferred from 384 well plates to the 96 well screening plates by a “96 pin-tool” using a pipetting robot.\nMost of the identified −333_CaBP22::GUS-inducers are structurally related to the defense hormone salicylic acid (SA). One of these compounds, 3,5-Dichloroanthranilic acid (DCA, FIG. 3A) to be particularly efficient in inducing −333_CaBP22::GUS expression. The chemical structure of this compound was confirmed by NMR and MS analyses. […] Thus, DCA has a high specificity for its cellular target. Consistent with this the EC50 value (effective concentration leading to a half-maximal response) of DCA is 6 uM (FIG. 3C), which is lower than the published EC50 value for PR1 induction by SA and its functional analog INA (65 and 10 uM, respectively; Wendehenne et al., 1998; Pillonel, 2001)."}, "[2]": {"system": "HpNoco2 (virulent Peronospora)", "experiment": "HpNoco2 disease resistance assay on soil grown seedlings (spore / sporangiophore counts 7 dpi)", "format": "in vivo, Arabidopsis", "description": "(A) RT-PCR analysis of CaBP22 and WRKY70 expression in Col-0 (wild type) and mutant backgrounds 24 hours after spraying 2 week old seedlings with water (un), 1 mM SA, or 100 μM DCA. ACT8 is shown as loading control. […] (B) Two week old seedlings were sprayed with virulent HpNoco2 24 hours after pre-treatment with 100 uM DCA. Spores were counted 7 days after spray infection. Means and standard errors were calculated from three independent experiments. Mann-Whitney U test (p<0.05) was used to determine significant differences among mutants.\n(§1) A: Extent of disease susceptibility/resistance determined by counting the numbers of Peronospora sproangiophores of 17 day old seedlings 7 d after spray-inoculation with 5E4 HpNoco2 spores/ml. 24 h prior to infection with Noco2 the aerial parts of the soil grown seedlings were sprayed with the indicated concentrations of DCA (compound 67) or SA. Three replicates each with at least 30 seedlings per treatment gave similar results. […] Concentrations higher than 100 μM caused cell death, as indicated by reduced GUS staining.\n(A) Chemical structures of DCA analogs analyzed. (B) Fluorometric analysis of GUS activities induced by DCA analogs. Proteins were extracted from 2 week old soil grown Col-0 seedlings 48 hours after spray-treatment with compounds at the indicated concentrations (uM). Means and standard errors calculated from 3 independent replicates. (c) HpNoco2 growth inhibition assay. 2 week old soil grown Col-0 seedlings were spray-infected with HpNoco2 48 hours after treatment with varying concentrations (uM) of each DCA analog. Seedlings were assayed 7 dpi for Peronospora growth (spore counts). 100% inhibition=0 spores. Assay was repeated three times with similar results.\nDCA induces disease resistance. Time-course experiment with 2-week old Col-0 seedlings that were sprayed with 100 uM of the respective compounds at the indicated times prior to HpNoco2 (3×10^4 spores/ml) spray-infection. Spores were counted 7 dpi."}, "[3]": {"system": "−333_CaBP22::GUS seedlings", "experiment": "toxic effects on plants after spraying aerial parts of seedlings", "format": "in vivo", "description": "as §1"}, "WRKY70": {"system": "WRKY70", "experiment": "semiquantitative RT-PCR of WRKY70 expression", "format": "in vivo, Arabidopsis"}, "[4]": {"system": "Pseudomonas syringae DC3000 (Pst DC3000)", "experiment": "Pst DC3000 disease resistance in Arabidopsis seedlings (dip inoculation, cfu)", "format": "in vivo", "details": "100 uM", "description": "(§2) (A &B) 14 day old soil grown Arabidopsis Col-0 seedlings were pre-treated with 100 uM of the indicated chemical then dip inoculated with Pst DC3000. (A) Photos taken 5 dpi. (B) Quantification of Pst DC3000 growth by counting colony forming units (cfu) at day 0 (grey bars) or day 3 (black bars). Significant differences were determined by Mann-Whitney U tests (p<0.05). (C) Pst DC3000 grown in liquid culture with 100 um of the indicated chemicals or 100 ug/ml hygromycin (HYG). OD600 reflecting bacterial density was measured at indicated times (hours) after inoculation. Standard errors were all less than 0.05 so are not visible on the graph. (D) Two week old cherry tomato seedlings sprayed 0.5 mM DCA, 4 mM SA or mock-treated two days prior to swab inoculation with Pst DC3000 (OD600=0.4). Photos were taken 6 days after Pst challenge."}, "Pst DC3000 [5]": {"system": "Pst DC3000", "experiment": "Pst DC3000 growth in liquid culture (OD600)", "format": "cell-based, Pseudomonas syringae", "details": "100 um in liquid culture"}, "Pst DC3000 [6]": {"system": "Pst DC3000", "experiment": "Pst DC3000 disease symptoms in cherry tomato seedlings (swab inoculation)", "format": "in vivo", "details": "500 uM, sprayed two days prior to inoculation", "description": "as §2"}, "−333_CaBP22::GUS [7]": {"system": "−333_CaBP22::GUS", "experiment": "GUS activity after spray-treatment of soil grown seedlings (structure-activity analysis, FIG. 5B, FIG. 8B)", "format": "in vivo, Arabidopsis", "description": "(A) Chemical structures of DCA analogs analyzed. […] Proteins were extracted from 2 week old soil grown Col-0 seedlings 48 hours after spray-treatment with compounds at the indicated concentrations (uM). Means and standard errors calculated from 3 independent replicates. (c) HpNoco2 growth inhibition assay. 2 week old soil grown Col-0 seedlings were spray-infected with HpNoco2 48 hours after treatment with varying concentrations (uM) of each DCA analog. Seedlings were assayed 7 dpi for Peronospora growth (spore counts). 100% inhibition=0 spores.\nDCA and the known SA-analog INA are structurally related. To compare their activities and to gain further understanding on structural features required for their defense inducing activities, a structure function analysis (SAR) was performed using multiple derivatives of DCA and INA (FIG. 8A)."}},
  "note": "Entries after “also recorded” stand apart in the source; their conditions may differ. Read-outs that look alike come from different tables or passages of the source.",
  "data": [
    {"smiles": "Nc1c(Cl)cc(Cl)cc1C(=O)O", "note": "[DCA, 3,5-Dichloroanthranilic acid]", "values": [
      {"measurement": "EC50", "setting": "−333_CaBP22::GUS [1]; Arabidopsis thaliana, 24 h, 24 h", "value": 6, "unit": "µM"},
      {"measurement": "concentration at which active as inducer of −333_CaBP22::GUS", "setting": "−333_CaBP22::GUS [1]; liquid medium, 24 h, FIG. 3B", "value": 0.1, "unit": "µM"},
      {"measurement": "active at x-fold lower concentrations than SA (−333_CaBP22::GUS induction)", "setting": "−333_CaBP22::GUS [1]; versus SA, FIG. 3B", "value": 10, "unit": "fold"},
      {"measurement": "EC50", "setting": "−333_CaBP22::GUS [1]; 24 h", "value": 7, "unit": "µM"},
      {"measurement": "resistance to HpNoco2 in npr1 mutant", "setting": "[2]; 100 uM pre-treatment 24 h, npr1 mutant", "value": "slight reduction"},
      {"measurement": "resistance to HpNoco2 in wrky70 mutant", "setting": "[2]; 100 uM pre-treatment 24 h, wrky70 mutant", "value": "partially reduced"},
      {"measurement": "duration of defense-inducing activity", "setting": "[2]; 100 uM, time-course, FIG. 9", "value": "only transiently active"},
      {"measurement": "time after treatment by which strong disease resistance is reached", "setting": "[2]; 100 uM, time-course, FIG. 9", "value": "≤ 1", "unit": "h"},
      {"measurement": "efficiency in inducing resistance to HpNoco2 (defense inducing activity)", "setting": "[2]; infection 48 hours after treatment, structure-activity analysis", "value": "nearly identical; also recorded: equally efficient"},
      {"measurement": "concentration giving efficient induction of disease resistance against virulent Peronospora (as low as)", "setting": "[2]; sprayed on aerial parts of soil grown seedlings 24 h prior to HpNoco2", "value": 10, "unit": "µM"},
      {"measurement": "concentrations causing cell death (reduced GUS staining)", "setting": "[3]", "value": "higher than 100 μM"},
      {"measurement": "WRKY70 expression", "setting": "WRKY70; 10 uM, wild type", "value": "activates"},
      {"measurement": "WRKY70 expression in most mutants with deficiencies in defense signaling", "setting": "WRKY70; most Arabidopsis defense signaling mutants", "value": "wild type expression"},
      {"measurement": "effect of nahG transgene on induction of WRKY70", "setting": "WRKY70; nahG (SA-catabolizing enzyme)", "value": "does not suppress"},
      {"measurement": "disease resistance to Pst DC3000", "setting": "[4]; Arabidopsis Col-0", "value": "triggered disease resistance"},
      {"measurement": "suppression of bacterial growth (cfu) compared with SA and INA", "setting": "[4]; day 3", "value": "more efficiently than SA or the frequently used SA analog INA"},
      {"measurement": "growth of Pst DC3000 in in vitro cultures", "setting": "Pst DC3000 [5]", "value": "does not affect growth"},
      {"measurement": "Pst DC3000 mediated disease symptoms in tomato", "setting": "Pst DC3000 [6]", "value": "suppressed Pst DC3000 mediated disease symptoms such as chlorosis"},
      {"measurement": "efficiency in inducing −333_CaBP22::GUS expression (defense inducing activity)", "setting": "−333_CaBP22::GUS [7]; 48 hours after spray-treatment, structure-activity analysis", "value": "nearly identical"},
      {"measurement": "reporter gene expression after spraying aerial parts", "setting": "−333_CaBP22::GUS [7]; spraying of 10-100 uM", "value": "induced reporter gene expression"}
    ]}
  ]
}
